Results taken from patent publication US11083706B2, “Lactams for use in the treatment of skin lesions” (priority 2016, dated 2021).
“Also recorded” adds a separate entry of the source.

How the values were obtained:
[1] = test system: PqsR-dependent pqsA::lux promoter fusion; test: pqsA::lux promoter fusion expression in P. aeruginosa PAO1-L (AQ-dependent QS biosensor); assay type: cell-based; details: for IC50: Pseudomonas aeruginosa, PAO1, read-out: IC50, pqsA::lux expression; for extent of inhibition of light output / pqsA expression at high concentrations: PAO1 pqsA::lux; for inhibition of pqsA::lux expression in first screening (FIG. 1-3): lactam 100 μM, control LB medium+1% methanol
Procedure: The expression of rhl and las AHL- and the pqsA AQ-synthase genes was evaluated using lux-based lasI (FIG. 1), rhlI (FIG. 2) and pqsA (FIG. 3) chromosomally integrated promoter fusions. Luminescence was quantified as a function of bacterial growth. The applicant further determined that none of the lactams is growth inhibitory at 100 μM using a large number of strains (figure not shown).
To determine the relative inhibitory activities (IC50s) of 4-(4-chlorophenyl)-5-methylene-pyrrol-2-one (Ref. 488) and 5-methylene-4-(p-tolyl)pyrrol-2-one (Ref. 491), dose response curves were constructed using the same biosensor strain (P. aeruginosa PAO1 pqsA::lux; Fletcher et al, 2007; Ilangovan et al 2013). This strain produces light in response to the endogenous production of AQs such as PQS and HHQ.

[2] = test system: pyocyanin production by PAO1-L; test: Pyocyanin production by PAO1-L, visual assessment; assay type: cell-based, P. aeruginosa PAO1-L; details: 488 at 100 μM (vial 2), 8 h at 37° C., PAO1-L culture supernatant
Source text: Pyocyanin is a blue redox-active secondary metabolite and a putative signalling molecule in P. aeruginosa (Jayaseelan et al, 2014). The pyocyanin biosynthetic (phz) genes are regulated by QS and in part via the transcriptional regulator PqsR acting through PqsE (Rampioni et al 2011).
Although qualitative, this observation offers further confirmation of the inhibitory effects of lactam 4-(4-chlorophenyl)-5-methylene-pyrrol-2-one (Ref. 488) on AQ-dependent QS.

PqsR = target: T1, PqsR (Pseudomonas aeruginosa, UniProt Q9I4X0); test: PQS-dependent pqsA::lux expression in AQ-non-producing PAO1-L ΔpqsA (PqsR antagonism); assay type: cell-based, P. aeruginosa PAO1-L ΔpqsA
T1 construct: endogenous in cells; host or cells: P. aeruginosa PAO1-L ΔpqsA pqsA::lux (chromosomal reporter fusion)
T1 sequence (Q9I4X0 whole entry, the tested form may be a part): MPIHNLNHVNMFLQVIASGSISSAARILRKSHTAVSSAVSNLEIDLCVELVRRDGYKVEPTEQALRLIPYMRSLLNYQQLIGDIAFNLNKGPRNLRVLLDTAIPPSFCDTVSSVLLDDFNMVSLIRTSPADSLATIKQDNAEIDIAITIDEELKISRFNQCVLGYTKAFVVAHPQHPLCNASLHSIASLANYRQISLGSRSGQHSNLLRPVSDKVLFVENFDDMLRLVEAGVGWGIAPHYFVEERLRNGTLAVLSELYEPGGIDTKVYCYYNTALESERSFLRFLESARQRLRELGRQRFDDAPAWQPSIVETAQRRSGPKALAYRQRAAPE
Procedure: By using the AQ-non producing P. aeruginosa strain PAO1-L ΔpqsA, pqsA::lux, the EC50 value for the native PqsR agonist, PQS was calculated as ˜2 μM (Ilangovan et al. 2013). […]
A partial agonist is a molecule that can bind to and activate a receptor resulting in a non-complete response compared with a full agonist. […] This contrasts with its activity as an antagonist in the presence of 10 or 40 μM PQS.

[3] = test system: PqsR-independent pathway of pqsA expression; test: PqsR-independent expression of pqsA'::lux in PAO1-N ΔpqsAHR; assay type: cell-based, P. aeruginosa PAO1-N ΔpqsAHR; details: presence or absence of 40 μM PQS
Source text: PQS is capable of weakly activating pqsA in the absence of PqsR via a mechanism that is not fully understood but appears to depend on the iron chelating properties of PQS. The aim of this experiment was to clarify whether lactam 4-(4-chlorophenyl)-5-methylene-pyrrol-2-one (Ref. 488) is also inhibitory for pqsA expression via the PqsR independent pathway. As previously described, the pqsA′::lux biosensor based on the triple mutant PAO1-N ΔpqsAHR cannot produce AQs and lacks pqsR but still responds to exogenous PQS. This response is however much weaker that the PqsR-dependent response.

[4] = test system: enzymes (PqsABCD) involved in AQ biosynthesis; test: HHQ/AQ biosynthesis in PAO1-N ΔpqsAHR pBBR-pqsABCD, TLC with biosensor overlay; assay type: cell-based, P. aeruginosa PAO1-N ΔpqsAHR; details: 488 200 μM, overnight in LB
Source text: To determine whether 4-(4-chlorophenyl)-5-methylene-pyrrol-2-one (Ref. 488) is capable of inhibiting the enzymes (PqsABCD) involved in AQ biosynthesis, the P. aeruginosa PAO1-N ΔpqsAHR was exploited. This mutant cannot produce AQs because the genes coding for the key biosynthetic enzymes (PqsA and PqsH) and regulation (PqsR) have been deleted. To restore AQ production in a PqsR-independent manner in PAO1-N ΔpqsA, the pqsABCD genes were introduced on a plasmid (pBBR pqsABCD; Niewerth et al. 2011). P. aeruginosa PAO1-N ΔpqsAHR and P. aeruginosa PAO1-N ΔpqsAHR pBBR pqsABCD were both incubated overnight in LB with and without 4-(4-chlorophenyl)-5-methylene-pyrrol-2-one (Ref. 488) (200 μM), resuspended to an OD600 1.0. The cultures were extracted with acidified ethyl acetate, the organic phase removed, dried and resuspended in methanol subjected to thin layer chromatography (TLC).
After chromatography using a dichloromethane-methanol mobile phase, the TLC plates were overlaid with a thin agar layer containing the AQ biosensor strain PAO1-L ΔpqsA CTX::pqsA′-luxCDABE (Fletcher et al. 2007) incubated and examined for reporter output (FIG. 13). […] The biosensor strain produces light (FIG. 13 panel C) and pyocyanin (FIG. 13 panel B) in response to AQs that bind to PqsR and activate the pqsA promoter.

SMILES	IC50 [1] [µM]	extent of inhibition of light output / pqsA expression at high concentrations [1]	inhibition of pqsA::lux expression in first screening (FIG. 1-3) [1]	pyocyanin production (qualitative) [2]	mode of antagonism of PQS-dependent pqsA::lux expression (PqsR; 488 at 0, 50, 100, 200 μM with range of PQS concentrations)	restoration of light output by PQS in the presence of 488 (PqsR; 488 at 50, 100, 200 μM)	partial agonist activity (activation of pqsA expression) (PqsR; 488 up to 800 μM, PQS 0 μM, PAO1-L ΔpqsA pqsA'::lux)	fold increase of PQS EC50 in the presence of 488 (PqsR; fixed concentration of 488 (215 μM)) [fold]	effect on PqsR-independent expression of pqsA [3]	inhibition of HHQ biosynthesis [4]
C=C1NC(=O)C=C1c1ccc(Cl)cc1 [Lactam 488, 4-(4-chlorophenyl)-5-methylene-pyrrol-2-one]	22	completely inhibited light output; also recorded: fully knock out the PQS	most potent inhibitor; also recorded: inhibition of the pqs-system is the main effect	inhibition of pyocyanin production	competitive antagonist	fully restoring light output in the presence of 50 μM but not 100 μM or 200 μM	no partial agonist activity	~15	small inhibitory effect	did not inhibit HHQ biosynthesis
C=C1NC(=O)C=C1c1ccc(C)cc1 [Lactam 491, 5-methylene-4-(p-tolyl)pyrrol-2-one]	44	did not inhibit pqsA expression as strongly; also recorded: did not give complete knock out	inhibition of the pqs-system is the main effect							
